This is an account of results in PubChem BioAssay (NCI).

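96-well plates; 48 h exposure; 5 concentrations. Endpoints by linear interpolation between flanking doses. Not reached: highest tested concentration assigned. At the GI50, growth is halved. TGI denotes the concentration required for complete inhibition of growth.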

Test systems include BT-549 breast; A498 renal; SK-OV-3 ovarian; MDA-MB-435; DU-145 prostate; SNB-75 CNS; SF-295 CNS; NCI-H226 lung; LOX IMVI melanoma; HL-60(TB) leukemia; LXFL 529 NSCLC.
Holding throughout (experiment): NCI anticancer screen, dose series, 48 h

Turning to `COC(C/C=C\C=C\CC/C=C/CC(C)/C=C/C(=C\C(=O)O)CC(=O)O)/C(C)=C\C=C(/C)C(=O)O` (centres undefined), the TGI in the experiment with BT-549 breast, with A498 renal, with SK-OV-3 ovarian, with MDA-MB-435, in the experiment with DU-145 prostate and in the experiment with SNB-75 CNS was > 100 µM throughout. Also, in the experiment with SF-295 CNS, the TGI is > 100 µM.
Consider `CCOC(=O)/C(C1=N[C@H](C(=O)OCC)CS1)=C(\O)c1ccccc1`, for which the TGI with NCI-H226 lung, with LOX IMVI melanoma, with HL-60(TB) leukemia, with SNB-75 CNS, in the experiment on LXFL 529 NSCLC and in the experiment on SF-295 CNS was > 100 µM in each case.
Regarding `NNc1nnc(-c2ccccc2)nc1Cc1ccccc1`, the TGI in the experiment on NCI-H226 lung was 6.43 µM; in the experiment with SK-OV-3 ovarian, > 100 µM; in the experiment on LOX IMVI melanoma, 30.5 µM; with HL-60(TB) leukemia, 38 µM; in the experiment with LXFL 529 NSCLC, 78.9 µM.
Take `Cn1cnc(/C=C/C#N)c1`: the TGI in the experiment with BT-549 breast, with NCI-H226 lung, with A498 renal, in the experiment on SK-OV-3 ovarian, in the experiment with MDA-MB-435 and in the experiment with SNB-75 CNS was > 100 µM each time. The TGI in the experiment with SF-295 CNS is > 100 µM.
Take `COc1ccc(-c2cc(-c3ccc(OC)c(OC)c3)nc(SCCCC(=O)NO)n2)cc1`: the GI50 in the experiment with BT-549 breast was 3.8 µM; in the experiment on A498 renal, 1.39 µM; with SK-OV-3 ovarian, 1.45 µM; in the experiment with LOX IMVI melanoma, 0.243 µM; in the experiment on MDA-MB-435, 1.27 µM; in the experiment on HL-60(TB) leukemia, 1.64 µM. For the same molecule, the values for the GI50 in the experiment with DU-145 prostate, in the experiment with SNB-75 CNS and with SF-295 CNS were 1.53 µM, 1.34 µM and 1.74 µM, respectively. In addition, the TGI is > 100 µM in the experiment on BT-549 breast; 3.06 µM with A498 renal; 4.93 µM in the experiment on SK-OV-3 ovarian; 1.06 µM in the experiment on LOX IMVI melanoma; 4.15 µM in the experiment on MDA-MB-435; 5.99 µM in the experiment with HL-60(TB) leukemia. Further, the results for the TGI with DU-145 prostate, with SNB-75 CNS and with SF-295 CNS were 17.7 µM, 5.6 µM and 3.77 µM, respectively.
Consider `Cc1cc(=O)[nH]c(NN2C(Cl)C(=O)C2c2ccco2)n1` (centres undefined), for which the TGI in the experiment on LOX IMVI melanoma is > 100 µM; with HL-60(TB) leukemia, 39.3 µM; with SNB-75 CNS, 68 µM; in the experiment on LXFL 529 NSCLC, > 100 µM.
Consider `CCOC(=O)NC(OCc1ccccc1)(C(=O)OC)C(F)(F)F` (centres undefined), for which the TGI in the experiment on BT-549 breast, with SK-OV-3 ovarian, with LOX IMVI melanoma, in the experiment on MDA-MB-435, in the experiment on HL-60(TB) leukemia and in the experiment with DU-145 prostate was > 100 µM throughout. The TGI with SF-295 CNS was > 100 µM.
